Results on 13 compounds are retold here after patent publication US9249116B2, “Enzyme-activating compounds and compositions” (The Board of Trustees of the University of Illinois, priority 2012, dated 2016).

The series in a line: Liver microsome stability assay. It counts as in vitro ADME. The following applies: rat liver microsomes, 10 μM, LC/MS. Here is the method: FIG. 4. Liver Microsome Stability Assay. Compounds (10 μM) incubated with liver microsomes for 3 h and quenched with MeCN containing internal standard, analyzed by LC/MS (280 nm). Next, the metabolic stability of the compounds was evaluated in rat liver microsomes. The compounds were evaluated for 3 hours at 10 μM, and the metabolites were observed by LC/MS.
In general terms: Microsomes from liver hold many membrane-bound enzymes, among them those of drug oxidation.
As to `C=CCc1cccc(/C=N/NC(=O)CN2CCN(Cc3ccc(C(F)(F)F)cc3)CC2)c1O` [Compound 8, N′-(3-allyl-2-hydroxybenzylidene)-2-(4-(4-(trifluoromethyl)benzyl)piperazin-1-yl)acetohydrazide], the “RLM 3 h % Stability” value amounted to 16 ± 1%.
The figure for `C=CCc1cccc(/C=N/NC(=O)CN2CCN(C(=O)c3ccc(C(F)(F)F)cc3)CC2)c1O` [Compound 9, N′-(3-allyl-2-hydroxybenzylidene)-2-(4-(4-(trifluoromethyl)benzoyl)piperazin-1-yl)acetohydrazide] is 85 ± 6%; for `CCCc1cccc(/C=N/NC(=O)CN2CCN(Cc3ccc(S(N)(=O)=O)cc3)CC2)c1O` [Compound 11, 4-((4-(2-(2-(2-hydroxy-3-propylbenzylidene)hydrazinyl)-2-oxoethyl)piperazin-1-yl)methyl)benzenesulfonamide] it is 61 ± 2%.
`CCCc1cccc(/C=N/NC(=O)CN2CCN(Cc3ccc(C(F)(F)F)cc3)CC2)c1O` [Compound 17]: the “RLM 3 h % Stability” value is on record as 15 ± 2%.
As to `CCCc1cccc(/C=N/NC(=O)CN2CCN(C(=O)c3ccc(C(F)(F)F)cc3)CC2)c1O` [Compound 18, N′-(2-hydroxy-3-propylbenzylidene)-2-(4-(4-(trifluoromethyl)benzoyl)piperazin-1-yl)acetohydrazide], the “RLM 3 h % Stability” value is reported as 64 ± 1%.
For `C=CCc1cc(F)cc(/C=N/NC(=O)CN2CCN(Cc3ccc(S(N)(=O)=O)cc3)CC2)c1O` [Compound 29, 4-((4-(2-(2-(3-allyl-5-fluoro-2-hydroxybenzylidene)hydrazinyl)-2-oxoethyl)piperazin-1-yl)methyl)benzenesulfonamide] the value was 89 ± 3%; for `C=CCc1cc(F)cc(/C=N/NC(=O)CN2CCN(C(=O)c3ccc(C#N)cc3)CC2)c1O` [Compound 32, N′-(3-allyl-5-fluoro-2-hydroxybenzylidene)-2-(4-(4-cyanobenzoyl)piperazin-1-yl)acetohydrazide], 95 ± 4%.
For `C=CCc1cc(F)cc(/C=N/NC(=O)CN2CCN(Cc3ccc(C(F)(F)F)cc3)CC2)c1O` [Compound 35, N′-(3-allyl-5-fluoro-2-hydroxybenzylidene)-2-(4-(4-(trifluoromethyl)benzyl)piperazin-1-yl)acetohydrazide] the value was 49 ± 3%; for `C=CCc1cc(F)cc(/C=N/NC(=O)CN2CCN(C(=O)c3ccc(C(F)(F)F)cc3)CC2)c1O` [Compound 36, N′-(3-allyl-5-fluoro-2-hydroxybenzylidene)-2-(4-(4-(trifluoromethyl)benzoyl)piperazin-1-yl)acetohydrazide], 90 ± 2%.
For `CCCc1cc(F)cc(/C=N/NC(=O)CN2CCN(Cc3ccc(S(N)(=O)=O)cc3)CC2)c1O` [Compound 38, 4-((4-(2-(2-(5-fluoro-2-hydroxy-3-propylbenzylidene)hydrazinyl)-2-oxoethyl)piperazin-1-yl)methyl)benzenesulfonamide] the value was 62 ± 3%; for `CCCc1cc(F)cc(/C=N/NC(=O)CN2CCN(C(=O)c3ccc(C#N)cc3)CC2)c1O` [Compound 41, 2-(4-(4-cyanobenzoyl)piperazin-1-yl)-N′-(5-fluoro-2-hydroxy-3-propylbenzylidene)acetohydrazide], 66 ± 3%.
Regarding `CCCc1cc(F)cc(/C=N/NC(=O)CN2CCN(Cc3ccc(C(F)(F)F)cc3)CC2)c1O` [Compound 44, N′-(5-fluoro-2-hydroxy-3-propylbenzylidene)-2-(4-(4-(trifluoromethyl)benzyl)piperazin-1-yl)acetohydrazide], the “RLM 3 h % Stability” value worked out at 40 ± 1%.
For the compound `CCCc1cc(F)cc(/C=N/NC(=O)CN2CCN(C(=O)c3ccc(C(F)(F)F)cc3)CC2)c1O` [Compound 45, N′-(5-fluoro-2-hydroxy-3-propylbenzylidene)-2-(4-(4-(trifluoromethyl)benzoyl)piperazin-1-yl)acetohydrazide], the “RLM 3 h % Stability” value was 64 ± 5%.
